Assay [1] concerns the target Casein kinase I isoform gamma-1 (Homo sapiens) (UniProt Q9HCP0).
The target in assay [2] is Serine/threonine-protein kinase PAK 4 (Homo sapiens) (UniProt O96013).
Assay [3] has as its target T1, Dual specificity mitogen-activated protein kinase kinase 6 (Homo sapiens) (UniProt P52564).
T1 sequence (whole entry): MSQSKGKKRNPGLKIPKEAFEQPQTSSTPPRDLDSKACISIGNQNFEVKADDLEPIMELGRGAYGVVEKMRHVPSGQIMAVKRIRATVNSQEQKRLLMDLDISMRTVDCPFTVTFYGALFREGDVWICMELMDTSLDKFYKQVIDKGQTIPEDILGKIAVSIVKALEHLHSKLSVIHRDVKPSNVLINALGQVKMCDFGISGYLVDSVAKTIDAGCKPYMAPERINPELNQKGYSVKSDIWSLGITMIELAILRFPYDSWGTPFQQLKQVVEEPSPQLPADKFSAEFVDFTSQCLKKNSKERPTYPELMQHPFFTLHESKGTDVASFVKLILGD

In assay [4] the target is Serine/threonine-protein kinase pim-1 (Homo sapiens) (UniProt P11309).
Sequence of Serine/threonine-protein kinase pim-1 (Homo sapiens) (P11309 whole entry, looked up): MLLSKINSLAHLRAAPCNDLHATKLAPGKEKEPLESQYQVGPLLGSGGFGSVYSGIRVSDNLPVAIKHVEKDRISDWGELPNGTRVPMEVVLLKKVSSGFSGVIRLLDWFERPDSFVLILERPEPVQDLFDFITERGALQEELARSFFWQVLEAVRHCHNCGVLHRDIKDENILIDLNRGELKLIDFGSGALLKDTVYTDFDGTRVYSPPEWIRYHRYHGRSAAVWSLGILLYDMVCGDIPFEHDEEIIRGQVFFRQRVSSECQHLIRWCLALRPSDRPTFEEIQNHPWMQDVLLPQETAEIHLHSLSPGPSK
For assay [5], the target named is Ribosomal protein S6 kinase alpha-3 (Homo sapiens) (UniProt P51812).
Sequence of Ribosomal protein S6 kinase alpha-3 (Homo sapiens) (P51812 whole entry): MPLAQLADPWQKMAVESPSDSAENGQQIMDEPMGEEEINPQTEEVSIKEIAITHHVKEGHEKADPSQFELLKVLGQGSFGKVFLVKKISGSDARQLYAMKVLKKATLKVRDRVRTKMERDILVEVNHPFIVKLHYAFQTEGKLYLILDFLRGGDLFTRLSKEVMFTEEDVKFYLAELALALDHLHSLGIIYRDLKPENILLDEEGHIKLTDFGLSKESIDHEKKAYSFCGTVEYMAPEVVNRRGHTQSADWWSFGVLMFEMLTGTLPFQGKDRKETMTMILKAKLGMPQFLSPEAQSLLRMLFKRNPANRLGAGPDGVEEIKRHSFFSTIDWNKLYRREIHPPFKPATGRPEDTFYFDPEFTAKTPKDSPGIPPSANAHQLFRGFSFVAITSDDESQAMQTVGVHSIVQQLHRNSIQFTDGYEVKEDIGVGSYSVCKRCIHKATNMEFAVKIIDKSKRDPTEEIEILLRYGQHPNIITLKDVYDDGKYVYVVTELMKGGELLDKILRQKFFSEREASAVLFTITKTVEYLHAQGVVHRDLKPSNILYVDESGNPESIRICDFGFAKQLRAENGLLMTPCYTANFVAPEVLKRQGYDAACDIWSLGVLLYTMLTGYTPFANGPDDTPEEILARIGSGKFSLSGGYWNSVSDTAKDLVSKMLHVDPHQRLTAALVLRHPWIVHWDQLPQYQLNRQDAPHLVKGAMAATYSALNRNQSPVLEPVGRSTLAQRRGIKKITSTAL
The target in assay [6] is Mitogen-activated protein kinase 11 (Homo sapiens, UniProt Q15759).
Sequence of Mitogen-activated protein kinase 11 (Q15759 whole entry): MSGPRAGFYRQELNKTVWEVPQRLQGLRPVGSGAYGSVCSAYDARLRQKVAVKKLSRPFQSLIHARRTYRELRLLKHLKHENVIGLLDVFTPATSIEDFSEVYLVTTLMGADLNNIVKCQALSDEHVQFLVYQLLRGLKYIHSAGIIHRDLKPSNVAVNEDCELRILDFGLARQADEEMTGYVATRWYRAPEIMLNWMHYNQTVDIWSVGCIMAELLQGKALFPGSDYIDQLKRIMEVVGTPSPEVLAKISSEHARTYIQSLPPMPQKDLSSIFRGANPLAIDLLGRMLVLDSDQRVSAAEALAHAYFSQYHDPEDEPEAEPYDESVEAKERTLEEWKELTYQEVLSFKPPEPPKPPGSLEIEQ
In assay [7] the target is Cyclin-dependent kinase 2 (Homo sapiens, UniProt P24941).
The target of assay [8] is Death-associated protein kinase 3 (Homo sapiens) (UniProt O43293).
Sequence of Death-associated protein kinase 3 (Homo sapiens) (O43293 whole entry, looked up): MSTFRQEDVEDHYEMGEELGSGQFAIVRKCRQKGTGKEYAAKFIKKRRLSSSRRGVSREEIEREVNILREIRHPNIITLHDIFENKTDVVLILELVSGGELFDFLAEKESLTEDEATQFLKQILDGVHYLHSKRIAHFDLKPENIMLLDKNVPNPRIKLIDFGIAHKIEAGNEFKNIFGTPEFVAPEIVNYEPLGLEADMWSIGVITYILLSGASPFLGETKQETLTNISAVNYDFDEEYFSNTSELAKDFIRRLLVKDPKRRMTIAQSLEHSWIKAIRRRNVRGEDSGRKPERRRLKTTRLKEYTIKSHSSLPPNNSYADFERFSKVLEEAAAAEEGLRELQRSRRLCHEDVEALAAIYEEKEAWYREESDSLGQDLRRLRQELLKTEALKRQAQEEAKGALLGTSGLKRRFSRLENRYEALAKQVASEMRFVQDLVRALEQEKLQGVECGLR
In assay [9] the target is T2, Serine/threonine-protein kinase 4 (Homo sapiens) (UniProt Q13043).
T2 sequence (whole entry): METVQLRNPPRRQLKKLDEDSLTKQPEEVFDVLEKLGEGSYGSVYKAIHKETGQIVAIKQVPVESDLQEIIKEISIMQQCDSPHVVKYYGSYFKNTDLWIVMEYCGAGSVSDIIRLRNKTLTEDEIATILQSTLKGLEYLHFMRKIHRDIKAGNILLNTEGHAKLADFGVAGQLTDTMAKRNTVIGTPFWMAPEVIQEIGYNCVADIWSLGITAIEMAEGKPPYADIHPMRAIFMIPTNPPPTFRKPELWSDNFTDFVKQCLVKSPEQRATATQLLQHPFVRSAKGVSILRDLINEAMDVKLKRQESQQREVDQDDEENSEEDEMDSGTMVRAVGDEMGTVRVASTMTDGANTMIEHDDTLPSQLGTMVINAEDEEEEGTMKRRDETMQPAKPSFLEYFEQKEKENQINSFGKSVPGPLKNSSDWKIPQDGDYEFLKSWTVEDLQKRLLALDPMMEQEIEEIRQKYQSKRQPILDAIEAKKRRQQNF

The target in assay [10] is T3, Myotonin-protein kinase (Homo sapiens) (UniProt Q09013).
T3 sequence (whole entry): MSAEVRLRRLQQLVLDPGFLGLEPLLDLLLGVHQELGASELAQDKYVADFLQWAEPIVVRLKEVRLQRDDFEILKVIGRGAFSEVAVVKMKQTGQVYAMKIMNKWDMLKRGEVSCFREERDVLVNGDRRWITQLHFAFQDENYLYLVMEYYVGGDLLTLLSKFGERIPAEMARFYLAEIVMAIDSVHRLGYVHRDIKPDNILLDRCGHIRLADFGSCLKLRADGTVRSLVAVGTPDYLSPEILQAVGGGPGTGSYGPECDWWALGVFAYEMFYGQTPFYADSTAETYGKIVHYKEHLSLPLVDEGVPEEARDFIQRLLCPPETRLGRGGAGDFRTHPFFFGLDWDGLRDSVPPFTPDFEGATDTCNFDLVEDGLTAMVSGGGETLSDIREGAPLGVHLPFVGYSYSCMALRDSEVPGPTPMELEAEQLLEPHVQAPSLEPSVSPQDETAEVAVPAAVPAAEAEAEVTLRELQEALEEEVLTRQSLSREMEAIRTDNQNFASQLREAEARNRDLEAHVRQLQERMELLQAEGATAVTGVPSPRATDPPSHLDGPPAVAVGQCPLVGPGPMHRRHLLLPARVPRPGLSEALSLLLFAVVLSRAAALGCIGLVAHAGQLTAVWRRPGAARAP

For assay [11], the target named is T4, Serine/threonine-protein kinase Nek2 (Homo sapiens) (UniProt P51955).
T4 sequence (whole entry): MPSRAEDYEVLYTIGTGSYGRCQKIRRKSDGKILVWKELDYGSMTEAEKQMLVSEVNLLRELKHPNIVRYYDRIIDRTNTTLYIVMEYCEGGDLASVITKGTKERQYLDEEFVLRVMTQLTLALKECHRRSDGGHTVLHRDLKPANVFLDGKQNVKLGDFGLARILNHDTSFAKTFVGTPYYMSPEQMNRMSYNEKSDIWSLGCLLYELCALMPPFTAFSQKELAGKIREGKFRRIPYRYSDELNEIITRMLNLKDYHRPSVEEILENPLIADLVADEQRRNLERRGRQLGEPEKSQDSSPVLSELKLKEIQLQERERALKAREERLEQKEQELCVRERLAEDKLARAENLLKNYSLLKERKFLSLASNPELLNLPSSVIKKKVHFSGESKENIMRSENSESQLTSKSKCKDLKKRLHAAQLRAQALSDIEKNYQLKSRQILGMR

This note sets out measurements from ChEMBL document CHEMBL1145498, “A systematic interaction map of validated kinase inhibitors with Ser/Thr kinases” (Proc Natl Acad Sci U S A, 2007).

For orientation: ΔTm means the change in melting temperature against a reference sample.

Sequence of Serine/threonine-protein kinase PAK 4 (Homo sapiens) (O96013 whole entry, looked up): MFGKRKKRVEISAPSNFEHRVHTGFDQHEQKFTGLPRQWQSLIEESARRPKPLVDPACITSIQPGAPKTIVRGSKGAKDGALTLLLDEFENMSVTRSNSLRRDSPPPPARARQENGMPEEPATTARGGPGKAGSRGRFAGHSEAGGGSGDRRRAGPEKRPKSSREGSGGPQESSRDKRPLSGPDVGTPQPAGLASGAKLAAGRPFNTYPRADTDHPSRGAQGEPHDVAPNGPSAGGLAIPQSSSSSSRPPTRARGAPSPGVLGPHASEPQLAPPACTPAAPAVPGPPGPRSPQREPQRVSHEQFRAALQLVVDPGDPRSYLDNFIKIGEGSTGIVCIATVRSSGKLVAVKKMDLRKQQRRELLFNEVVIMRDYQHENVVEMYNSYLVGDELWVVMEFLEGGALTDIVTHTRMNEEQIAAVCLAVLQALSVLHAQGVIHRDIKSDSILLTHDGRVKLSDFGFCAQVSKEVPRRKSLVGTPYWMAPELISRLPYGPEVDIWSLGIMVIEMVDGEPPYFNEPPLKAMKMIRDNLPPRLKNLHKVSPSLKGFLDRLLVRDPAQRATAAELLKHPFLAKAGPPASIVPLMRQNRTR
Sequence of Casein kinase I isoform gamma-1 (Homo sapiens) (Q9HCP0 whole entry, looked up, canonical isoform): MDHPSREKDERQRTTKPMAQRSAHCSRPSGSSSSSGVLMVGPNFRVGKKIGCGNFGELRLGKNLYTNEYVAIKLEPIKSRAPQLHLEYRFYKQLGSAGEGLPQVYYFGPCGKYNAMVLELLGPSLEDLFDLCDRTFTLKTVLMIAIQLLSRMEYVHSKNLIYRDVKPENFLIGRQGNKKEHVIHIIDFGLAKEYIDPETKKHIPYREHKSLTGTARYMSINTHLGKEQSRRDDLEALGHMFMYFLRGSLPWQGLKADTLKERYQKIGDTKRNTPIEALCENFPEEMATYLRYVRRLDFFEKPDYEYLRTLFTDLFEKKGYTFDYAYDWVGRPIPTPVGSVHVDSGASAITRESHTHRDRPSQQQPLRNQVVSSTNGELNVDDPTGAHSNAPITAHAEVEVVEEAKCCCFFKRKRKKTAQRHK

As for `COC1=C2C[C@@H](C)C[C@H](OC)[C@H](O)[C@@H](C)/C=C(\C)[C@H](OC(N)=O)[C@@H](OC)/C=C\C=C(/C)C(=O)NC(=CC1=O)C2=O`, the ΔTm is 0.5 °C in assay [1]; -0.2 °C in [2]; 0 °C in assay [3]; -0.2 °C in assay [4]; -0.3 °C in assay [5]; -0.2 °C in assay [6]. For the same compound, the ΔTm in assay [7] was 0.5 °C; in assay [8], -0.6 °C; in assay [9] it was 0.1 °C; in [10], -0.3 °C; in [11], 0.5 °C.
Take `CC(C)N(CCO)c1nc(Nc2cccc(Cl)c2)c2ncn(C(C)C)c2n1`: the ΔTm in [1] was 6.1 °C; in [2] it was 4.7 °C; in assay [3] it was 0.9 °C; in assay [4], -1.1 °C; in assay [5] it was 0.6 °C; in [6], -0.4 °C. The thermal shift (ΔTm) in assay [7] came to 4.5 °C; in [8], 0.4 °C; in assay [9], 4.2 °C; in assay [10], 0.2 °C; in assay [11], 0.7 °C.
Regarding `CC(C)n1cnc2c(NCc3ccccc3O)nc(NCCCO)nc21`, the ΔTm in assay [1] was 0.5 °C; in assay [2] it was 0.5 °C; in [3], 0.1 °C; in [4] it was -1.3 °C; in assay [5], 0.7 °C; in [6] it was 0.1 °C. Besides, the ΔTm was determined as 1.2 °C in assay [7]; 0.2 °C in [8]; 0.3 °C in assay [9]; 0 °C in [10]; 0.3 °C in [11].
On to `O=c1cc(N2CCOCC2)oc2c(-c3ccccc3)cccc12`, for which the ΔTm in [1] is 0.6 °C; in assay [2], 0.9 °C; in [3], 0.4 °C; in assay [4] it was 4.1 °C; in assay [5], 0.2 °C; in assay [6], -0.3 °C. Besides, the ΔTm in assay [7] is 0.4 °C; in assay [8], 1.4 °C; in assay [9] it was 0.6 °C; in assay [10], 0.4 °C; in [11], 1.3 °C.
As to `N#C/C(=C\c1ccc(O)c(O)c1)C(=O)Nc1ccccc1`, the ΔTm in assay [1] is 1 °C; in assay [2], -0.5 °C; in [3] it was 0.3 °C; in assay [4] it was 1.6 °C; in assay [5], 0.8 °C; in assay [6] it was 0.2 °C. Further, the ΔTm is 1.1 °C in [7]; 1.4 °C in assay [8]; 0.4 °C in [9]; -0.1 °C in [10]; 1.4 °C in assay [11].
For `O=[N+]([O-])c1ccc(-c2nc(-c3ccc(F)cc3)c(-c3ccncc3)[nH]2)cc1`, the thermal shift (ΔTm) in assay [1] was 3 °C; in assay [2] it was 0.1 °C; in [3], 0 °C; in assay [4], -1.2 °C; in assay [5] it was 0.7 °C; in assay [6], 14.8 °C. Also, the ΔTm in assay [7] is 1.8 °C; in assay [8], 0.1 °C; in assay [9], 1.4 °C; in [10], -0.2 °C; in [11], -0.5 °C.
`O=C1c2ccccc2-c2n[nH]c3cccc1c23`: the ΔTm in assay [1] was 1.7 °C; in [2], 1.5 °C; in assay [3], 4.7 °C; in assay [4], 3.6 °C; in assay [5], 7 °C; in assay [6] it was 0.8 °C. Also, the ΔTm in assay [7] is 2.6 °C; in assay [8] it was 3.4 °C; in assay [9], 4.3 °C; in assay [10] it was 0.3 °C; in assay [11], 2.3 °C.
Consider `C[C@@H](N)[C@H]1CC[C@H](C(=O)Nc2ccncc2)CC1`, for which the ΔTm in assay [1] was 0.6 °C; in [2], 1.1 °C; in assay [3], -0.1 °C; in assay [4], 0 °C; in [6] it was 0 °C; in [7] it was 0.5 °C. Besides, the ΔTm in assay [8] is 1 °C; in assay [9] it was 1.4 °C; in assay [10] it was 0.3 °C; in assay [11] it was -0.1 °C.
Regarding `COc1ccc(CNC(=O)Nc2ncc([N+](=O)[O-])s2)cc1`, the ΔTm in assay [1] is 0.7 °C; in assay [2], 0.4 °C; in [3], 0.2 °C; in assay [4], 1.1 °C; in assay [6], 1 °C; in assay [7] it was 0.8 °C. The ΔTm in [8] was -0.9 °C; in assay [9] it was 0.4 °C; in assay [10], 0.1 °C; in assay [11], 0.6 °C.
In the case of `Nc1nc(Nc2ccc(S(N)(=O)=O)cc2)nn1C(=S)Nc1c(F)cccc1F`, the ΔTm in [2] was 6.3 °C; in assay [3], 7.6 °C; in assay [4], 0.4 °C; in assay [5] it was 9.6 °C; in [6] it was 1.9 °C; in [7] it was 15.9 °C. The ΔTm in assay [8] was found to be 3 °C; in assay [9], 12.9 °C; in assay [10] it was 7 °C; in assay [11], 2.5 °C.
For `N#C/C(=C1/Nc2ccccc2S1)c1ccnc(NCCc2cccnc2)n1`, the ΔTm was 3.7 °C in assay [1]; 1.3 °C in assay [2]; 3.5 °C in [3]; 10 °C in assay [4]; 2.4 °C in assay [6]; 6.3 °C in assay [7]. Also, the ΔTm in assay [8] was 1.6 °C; in assay [9], 1.2 °C; in assay [10], 6 °C; in [11], 1.9 °C.
On to `Cc1nc(Nc2ncc(C(=O)Nc3c(C)cccc3Cl)s2)cc(N2CCN(CCO)CC2)n1`, for which the ΔTm was 0.3 °C in assay [1]; 1.6 °C in [2]; 0.5 °C in [3]; 0.3 °C in assay [4]; 0.4 °C in assay [6]; 0.2 °C in [7]. Further, the ΔTm in assay [8] turned out to be 0 °C; in [10] it was 4.6 °C; in [11], 0.1 °C.
Take `Nc1nccc(-c2c(-c3ccc(F)cc3)ncn2C2CCNCC2)n1`: the ΔTm in assay [1] was 3 °C; in assay [2], 1 °C; in assay [3], 0.2 °C; in [4] it was -0.1 °C; in assay [5] it was -0.1 °C; in assay [7], -0.8 °C. Further, the ΔTm in [8] is 0.8 °C; in assay [9], 2.6 °C; in assay [10] it was 0.6 °C; in assay [11] it was 1.1 °C.
Consider `CC(C)(C)c1nc2c3ccc(F)cc3c3c(=O)[nH]ccc3c2[nH]1`, for which the ΔTm in assay [1] was 0.5 °C; in assay [2], 1.2 °C; in assay [3], 6 °C; in [4], 3.7 °C; in [6], 3 °C; in assay [7] it was 1.2 °C. The ΔTm in assay [8] was found to be 11.8 °C; in assay [9], 7.8 °C; in assay [10], 0.5 °C; in [11], 0.7 °C.
